Experimental data taken from BindingDB's records for doi:10.1016/j.ejmech.2017.02.022 (Svkm'S Dr. Bhanuben Nanavati College of Pharmacy, 2017).
pIC50: −log10 of the molar value.

Experiment: Inhibition of ABCB1 in human MCF7/ADR cells assessed as potentiation of vinblastine-induced cytotoxicity by measuring vinblastine IC50 at IC10 after 7 days by SRB assay

SMILES	pIC50
Cc1cc(C)c2c(c1)c(=O)c1ccccc1n2CCCN(CCO)CCO	7.96
Cc1cc(C)c2c(c1)c(=O)c1ccccc1n2CCCN1CCN(CCO)CC1	8.10
Cc1cc(C)c2[nH]c3ccccc3c(=O)c2c1	7.57
CCN(CC)CCCn1c2ccccc2c(=O)c2cc(C)cc(C)c21	7.85
Cc1cc(C)c2c(c1)c(=O)c1ccccc1n2CCCCN1CCN(C)CC1	8.00
Cc1cc(C)c2c(c1)c(=O)c1ccccc1n2CCCN1CCN(C)CC1	7.77
Cc1cc(C)c2c(c1)c(=O)c1ccccc1n2CCCCN(CCO)CCO	8.51
Cc1cc(C)c2c(c1)c(=O)c1ccccc1n2CCCCN1CCN(CCO)CC1	8.89
CCN(CC)CCCCn1c2ccccc2c(=O)c2cc(C)cc(C)c21	8.39
Cc1cc(C)c2c(c1)c(=O)c1ccccc1n2CCCN1CCCCC1	7.77
Cc1cc(C)c2c(c1)c(=O)c1ccccc1n2CCCCN1CCCCC1	8.30
Cc1cc(C)c2c(c1)c(=O)c1ccccc1n2CCCCN1CCOCC1	8.40
Cc1cc(C)c2c(c1)c(=O)c1ccccc1n2CCCN1CCOCC1	7.70
